This note sets out measurements from patent USRE32311E.

For data set [1], the system named is Staphylococcus aureus X1.1. Briefly: agar-dilution MIC. It counts as cell-based.
Data set [2] relates to Staphylococcus aureus V41. Briefly: agar-dilution MIC. It counts as cell-based. Conditions: Staphylococcus aureus V41, penicillin-resistant strain.
Protocol: (§1) In Table VII activity is measured by the minimal inhibitory concentration (MIC), i.e. the lowest concentration of compound at which growth of the microorganism is inhibited by the test compound.
Data set [3] concerns Staphylococcus aureus X400. Briefly: agar-dilution MIC. It counts as cell-based. Particulars: Staphylococcus aureus X400, methicillin-resistant strain.
Protocol: as §1
The test system of data set [4] is Staphylococcus epidermidis EP11. The data set can be described thus: agar-dilution MIC. It counts as cell-based.
Protocol: as §1
Data set [5] deals with Staphylococcus epidermidis EP12. Briefly: agar-dilution MIC. The format is cell-based.
Protocol: as §1
Data set [6] concerns Streptococcus Group D X66. Briefly: agar-dilution MIC. It counts as cell-based.
Protocol: as §1
Data set [7] relates to Streptococcus Group D 9960. The data set can be described thus: agar-dilution MIC. It counts as cell-based.
The test system of data set [8] is Streptococcus pyogenes. Briefly: experimental bacterial infection in mice, ED50. The format is in vivo. Particulars: two doses.
Data set [9] is described as follows: toxicity, LD50 in mice. The format is in vivo. Conditions: administered intravenously.
Data set [10] concerns Streptococcus pyogenes C203. Briefly: agar-dilution MIC. The format is cell-based.
Protocol: as §1
The subject of data set [11] is Streptococcus pneumoniae Park I. The format is cell-based. Particulars: agar dilution. (In general: Agar dilution tests growth on a series of plates holding different concentrations.)
Protocol: as §1
In data set [12] the test system is Staphylococcus aureus. The data set can be described thus: experimental bacterial infection in mice, ED50. It counts as in vivo. Particulars: two doses.

In brackets after ≈: the same amount, converted by molar mass.

As a reminder, the MIC is the lowest concentration that inhibits growth of the organism.

As to `CCCCCCCCCCCC(=O)N[C@H](Cc1ccccc1)C(=O)N[C@@H](Cc1c[nH]c2ccccc12)C(=O)N[C@H](CC(N)=O)C(=O)N[C@@H](CC(=O)O)C(=O)N[C@@H]1C(=O)NCC(=O)N[C@@H](CCCN)C(=O)N[C@@H](CC(=O)O)C(=O)N[C@H](C)C(=O)N[C@@H](CC(=O)O)C(=O)NCC(=O)N[C@H](CO)C(=O)N[C@@H]([C@H](C)CC(=O)O)C(=O)N[C@@H](CC(=O)c2ccccc2N)C(=O)O[C@@H]1C` [Compound 1], the MIC in data set [1] was 0.5 µg/mL (≈ 0.278 µM); in data set [2], 0.5 µg/mL (≈ 0.278 µM); in data set [3] it was 1 µg/mL (≈ 0.557 µM); in [4], 2 µg/mL (≈ 1.11 µM); in data set [5] it was 1 µg/mL (≈ 0.557 µM); in data set [6], 1 µg/mL (≈ 0.557 µM). For the same molecule, the minimal inhibitory concentration (MIC) in data set [7] stood at 0.5 µg/mL (≈ 0.278 µM). For the same molecule, the “ED50 Streptococcus pyogenes Oral” value in [8] is listed as > 200 mg/kg × 2. Further, in data set [9], the “LD50 in Mice” value was 250 mg/kg.
Regarding `CCCCCCCCCCCC(=O)NCCCCC(=O)N[C@@H](Cc1c[nH]c2ccccc12)C(=O)N[C@H](CC(N)=O)C(=O)N[C@@H](CC(=O)O)C(=O)N[C@@H]1C(=O)NCC(=O)N[C@@H](CCCN)C(=O)N[C@@H](CC(=O)O)C(=O)N[C@H](C)C(=O)N[C@@H](CC(=O)O)C(=O)NCC(=O)N[C@H](CO)C(=O)N[C@@H]([C@H](C)CC(=O)O)C(=O)N[C@@H](CC(=O)c2ccccc2N)C(=O)O[C@@H]1C` [Compound 2], the MIC in data set [1] came out at 4 µg/mL (≈ 2.29 µM); in data set [2] it was 4 µg/mL (≈ 2.29 µM); in data set [3], 4 µg/mL (≈ 2.29 µM); in data set [4], 4 µg/mL (≈ 2.29 µM); in [5], 2 µg/mL (≈ 1.14 µM); in data set [10] it was 1 µg/mL (≈ 0.572 µM). Further, the MIC turned out to be 4 µg/mL (≈ 2.29 µM) in data set [11], 32 µg/mL (≈ 18.3 µM) in [6] and 8 µg/mL (≈ 4.58 µM) in data set [7]. The “ED50 Streptococcus pyogenes Oral” value in [8] turned out to be 117 mg/kg × 2. In addition, in data set [9], the “LD50 in Mice” value is on record as > 600 mg/kg.
For the molecule `CCCCCCCCCCCC(=O)Nc1ccc(C(=O)N[C@@H](Cc2c[nH]c3ccccc23)C(=O)N[C@H](CC(N)=O)C(=O)N[C@@H](CC(=O)O)C(=O)N[C@@H]2C(=O)NCC(=O)N[C@@H](CCCN)C(=O)N[C@@H](CC(=O)O)C(=O)N[C@H](C)C(=O)N[C@@H](CC(=O)O)C(=O)NCC(=O)N[C@H](CO)C(=O)N[C@@H]([C@H](C)CC(=O)O)C(=O)N[C@@H](CC(=O)c3ccccc3N)C(=O)O[C@@H]2C)cc1` [Compound 4], the MIC was 4 µg/mL (≈ 2.26 µM) in data set [1] and 8 µg/mL (≈ 4.53 µM) in data set [3]. The “ED50 Staphylococcus aureus Subcutaneous” value in [12] was < 5 mg/kg × 2. The “ED50 Streptococcus pyogenes Oral” value in data set [8] is > 200 mg/kg × 2. Also, the “ED50 Streptococcus pyogenes Subcutaneous” value in [8] is 18.8 mg/kg × 2. Also, in data set [9], the “LD50 in Mice” value is recorded as > 300 mg/kg.
`CCCCCCCCCC(=O)N[C@@H](Cc1c[nH]c2ccccc12)C(=O)N[C@@H](CC(N)=O)C(=O)N[C@@H](CC(=O)O)C(=O)N[C@@H]1C(=O)NCC(=O)N[C@@H](CCCN)C(=O)N[C@@H](CC(=O)O)C(=O)N[C@H](C)C(=O)N[C@@H](CC(=O)O)C(=O)NCC(=O)N[C@H](CO)C(=O)N[C@@H]([C@H](C)CC(=O)O)C(=O)N[C@@H](CC(=O)c2ccccc2N)C(=O)O[C@@H]1C` [Compound 6]: the minimum inhibitory concentration (MIC) in data set [1] stood at 1 µg/mL (≈ 0.617 µM); in data set [2] it was 2 µg/mL (≈ 1.23 µM); in [3], 4 µg/mL (≈ 2.47 µM); in [4], 2 µg/mL (≈ 1.23 µM); in data set [5], 2 µg/mL (≈ 1.23 µM); in [10], 0.5 µg/mL (≈ 0.309 µM). Also, the MIC amounted to 2 µg/mL (≈ 1.23 µM) in data set [11], 16 µg/mL (≈ 9.87 µM) in data set [6] and 2 µg/mL (≈ 1.23 µM) in data set [7].
On to `CCCCCCCCCCCCCCCC(=O)N[C@@H](Cc1c[nH]c2ccccc12)C(=O)N[C@@H](CC(N)=O)C(=O)N[C@@H](CC(=O)O)C(=O)N[C@@H]1C(=O)NCC(=O)N[C@@H](CCCN)C(=O)N[C@@H](CC(=O)O)C(=O)N[C@H](C)C(=O)N[C@@H](CC(=O)O)C(=O)NCC(=O)N[C@H](CO)C(=O)N[C@@H]([C@H](C)CC(=O)O)C(=O)N[C@@H](CC(=O)c2ccccc2N)C(=O)O[C@@H]1C` [Compound 10], for which the MIC is 2.1 µg/mL (≈ 1.23 µM) in data set [4], 0.06 µg/mL (≈ 0.0352 µM) in data set [10], 0.25 µg/mL (≈ 0.147 µM) in [11] and 2.1 µg/mL (≈ 1.23 µM) in data set [7]. Besides, the “ED50 Streptococcus pyogenes Subcutaneous” value in [8] is reported as 0.69 mg/kg × 2. Moreover, the “LD50 in Mice” value in [9] is given as 450 mg/kg.
Regarding `CCCCCCCCC(=O)N[C@@H](Cc1ccccc1)C(=O)N[C@@H](Cc1c[nH]c2ccccc12)C(=O)N[C@H](CC(N)=O)C(=O)N[C@@H](CC(=O)O)C(=O)N[C@@H]1C(=O)NCC(=O)N[C@@H](CCCN)C(=O)N[C@@H](CC(=O)O)C(=O)N[C@H](C)C(=O)N[C@@H](CC(=O)O)C(=O)NCC(=O)N[C@H](CO)C(=O)N[C@@H]([C@H](C)CC(=O)O)C(=O)N[C@@H](CC(=O)c2ccccc2N)C(=O)O[C@@H]1C` [Compound 18], the minimal inhibitory concentration (MIC) stood at 2 µg/mL (≈ 1.14 µM) in [1]; 2 µg/mL (≈ 1.14 µM) in [2]; 4 µg/mL (≈ 2.28 µM) in [3]; 4 µg/mL (≈ 2.28 µM) in data set [4]; 2 µg/mL (≈ 1.14 µM) in data set [5]; 0.5 µg/mL (≈ 0.285 µM) in data set [10]. Further, the MIC in data set [6] is 32 µg/mL (≈ 18.2 µM); in [7] it was 8 µg/mL (≈ 4.56 µM). Also, the “ED50 Staphylococcus aureus Subcutaneous” value in [12] was determined as 1.38 mg/kg × 2. Further, in [8], the “ED50 Streptococcus pyogenes Oral” value is reported as 184 mg/kg × 2. In addition, the “ED50 Streptococcus pyogenes Subcutaneous” value in data set [8] stood at 0.59 mg/kg × 2. The “LD50 in Mice” value in data set [9] was > 600 mg/kg.
On to `CCCCCCCCCCC(=O)N[C@@H](Cc1ccccc1)C(=O)N[C@@H](Cc1c[nH]c2ccccc12)C(=O)N[C@H](CC(N)=O)C(=O)N[C@@H](CC(=O)O)C(=O)N[C@@H]1C(=O)NCC(=O)N[C@@H](CCCN)C(=O)N[C@@H](CC(=O)O)C(=O)N[C@H](C)C(=O)N[C@@H](CC(=O)O)C(=O)NCC(=O)N[C@H](CO)C(=O)N[C@@H]([C@H](C)CC(=O)O)C(=O)N[C@@H](CC(=O)c2ccccc2N)C(=O)O[C@@H]1C` [Compound 20], for which the MIC in data set [1] came out at 0.5 µg/mL (≈ 0.281 µM); in [2], 0.5 µg/mL (≈ 0.281 µM); in data set [3], 2 µg/mL (≈ 1.12 µM); in data set [4], 2 µg/mL (≈ 1.12 µM); in [5], 2 µg/mL (≈ 1.12 µM); in [6], 4 µg/mL (≈ 2.24 µM). This molecule had an MIC in data set [7] of 2 µg/mL (≈ 1.12 µM). For the same molecule, in data set [12], the “ED50 Staphylococcus aureus Subcutaneous” value is listed as 1.25 mg/kg × 2. Also, the “ED50 Streptococcus pyogenes Oral” value in data set [8] was > 200 mg/kg × 2. Besides, the “ED50 Streptococcus pyogenes Subcutaneous” value in data set [8] is given as 0.35 mg/kg × 2. Further, in data set [9], the “LD50 in Mice” value was 400 mg/kg.
Consider `CCCCCCCCCCCCC(=O)N[C@@H](Cc1ccccc1)C(=O)N[C@@H](Cc1c[nH]c2ccccc12)C(=O)N[C@H](CC(N)=O)C(=O)N[C@@H](CC(=O)O)C(=O)N[C@@H]1C(=O)NCC(=O)N[C@@H](CCCN)C(=O)N[C@@H](CC(=O)O)C(=O)N[C@H](C)C(=O)N[C@@H](CC(=O)O)C(=O)NCC(=O)N[C@H](CO)C(=O)N[C@@H]([C@H](C)CC(=O)O)C(=O)N[C@@H](CC(=O)c2ccccc2N)C(=O)O[C@@H]1C` [Compound 21], for which the MIC worked out at 0.5 µg/mL (≈ 0.276 µM) in data set [1]; 0.5 µg/mL (≈ 0.276 µM) in [2]; 2 µg/mL (≈ 1.11 µM) in [3]; 2 µg/mL (≈ 1.11 µM) in data set [4]; 2 µg/mL (≈ 1.11 µM) in data set [5]; 1 µg/mL (≈ 0.553 µM) in [6]. Besides, in [7], the MIC was found to be 0.25 µg/mL (≈ 0.138 µM). In addition, the “ED50 Staphylococcus aureus Subcutaneous” value in data set [12] is 0.76 mg/kg × 2. Besides, the “ED50 Streptococcus pyogenes Oral” value in data set [8] was > 200 mg/kg × 2. Moreover, the “ED50 Streptococcus pyogenes Subcutaneous” value in data set [8] came to 0.14 mg/kg × 2.
As for `CCCCCCCCCCC(=O)N[C@@H](Cc1ccccc1)C(=O)NCCC[C@@H]1NC(=O)CNC(=O)[C@@H](NC(=O)[C@H](CC(=O)O)NC(=O)[C@@H](CC(N)=O)NC(=O)[C@@H](N)Cc2c[nH]c3ccccc23)[C@@H](C)OC(=O)[C@H](CC(=O)c2ccccc2N)NC(=O)[C@H]([C@H](C)CC(=O)O)NC(=O)[C@@H](CO)NC(=O)CNC(=O)[C@H](CC(=O)O)NC(=O)[C@@H](C)NC(=O)[C@H](CC(=O)O)NC1=O` [Compound 26], the figures for the MIC in data set [1], in [10] and in [7] were 8 µg/mL (≈ 4.49 µM), 1 µg/mL (≈ 0.561 µM) and 32 µg/mL (≈ 18 µM), respectively. Further, the “ED50 Staphylococcus aureus Subcutaneous” value in data set [12] worked out at 9.2 mg/kg × 2. Besides, the “ED50 Streptococcus pyogenes Oral” value in [8] was > 200 mg/kg × 2. The “ED50 Streptococcus pyogenes Subcutaneous” value in data set [8] is on record as > 18 mg/kg × 2.
In the case of `CCCCCC(=O)N[C@@H](Cc1c[nH]c2ccccc12)C(=O)NCCC[C@@H]1NC(=O)CNC(=O)[C@@H](NC(=O)[C@H](CC(=O)O)NC(=O)[C@@H](CC(N)=O)NC(=O)[C@H](Cc2c[nH]c3ccccc23)NC(=O)CCCCCCCCC(C)CC)[C@@H](C)OC(=O)[C@H](CC(=O)c2ccccc2N)NC(=O)[C@H]([C@H](C)CC(=O)O)NC(=O)[C@@H](CO)NC(=O)CNC(=O)[C@H](CC(=O)O)NC(=O)[C@@H](C)NC(=O)[C@H](CC(=O)O)NC1=O` (stereo partly shown) [Compound 29], the MIC worked out at 1 µg/mL (≈ 0.514 µM) in data set [3], 8 µg/mL (≈ 4.11 µM) in [6] and 32 µg/mL (≈ 16.4 µM) in [7]. The “ED50 Streptococcus pyogenes Oral” value in [8] is on record as > 200 mg/kg × 2. In addition, the “LD50 in Mice” value in [9] was found to be 37.5 mg/kg.
